Experimental data from patent US10640533B2, “Epoxyketone compounds for enzyme inhibition” (CENTRAX INTERNATIONAL, INC., priority 2014, dated 2020).
pIC50: −log10 of the molar value. Converted amounts (≈) assume the structure as drawn. Like-named read-outs stand apart in the source and are kept apart here.

Tests used:
[1] = target: 20S Immunoproteasome chymotrypsin-like (CT-L) activity (Homo sapiens (Human), UniProt P20618+P28062); test: 20S immunoproteasome CT-L activity inhibition, fluorogenic substrate succinyl-Leu-Leu-Val-Tyr-AMC; type: biochemical; conditions: purified human 20S proteasome, room temperature, one hour
Protocol: (§1) Inhibition of the 20S proteasome can be determined by methods and assays known in the art, for example, as disclosed by Stein et al., Biochemistry (1996), 35, 3899-3908; by Lightcap et al., Clinical Chemistry, 2000, 46, 673-683; by Kisselev et al., Journal of Biological Chemistry. (2006), 281, 8582-8590 and in U.S. application Ser. No. 09/569,748. The chymotrypsin-like (CT-L), peptidylglutamyl peptide hydrolyzing (PGPH) and trypsin-like (T-L) activities of the 20S proteasome are measured with a fluorogenic substrate assay method using succinyl-Leu-Leu-Val-Tyr-AMC, Z-Leu-Leu-Glu-AMC and Boc-Leu-Arg-Arg-AMC, respectively, as the substrates in an assay buffer. The free fluorophore 7-Amino-4-methylcoumarin (AMC) after cleavage from the substrates is quantified using a fluorometer and activity of CT-L, PGPH and T-L of 20S proteasome is determined.
(§2) Inhibition of the chymotrypsin-like (CT-L), peptidylglutamyl peptide hydrolyzing activity (PGPH), and trypsin-like (T-L) activities of the 20S proteasome in enzymatic assays were determined using succinyl-Leu-Leu-Val-Tyr-AMC (10 μmol/L), Z-Leu-Leu-Glu-AMC (10 μmol/L) and Boc-Leu-Arg-Arg-AMC (50 μmol/L), respectively, as the substrates with purified human 20S proteasome at 2, 4 and 8 nmol/L, respectively, in the assay buffer containing 25 mM HEPES (pH7.5), 0.5 mM EDTA, 0.002% sodium dodecyl sulfate (SDS) and 0.05% NP-40. Stock solutions of the 20S proteasome inhibitors disclosed herein were prepared in dimethyl sulfoxide (DMSO) and the final DMSO concentration in the assay mixture was 1%. Reaction was conducted at room temperature for one hour. Proteasome activity was measured based on detection of the fluorophore 7-Amino-4-methylcoumarin (AMC) after cleavage from the substrates with a plate-based spectrofluorometer.

[2] = target: 20S Immunoproteasome peptidylglutamyl peptide hydrolyzing (PGPH) activity (Homo sapiens (Human), UniProt P28065+P40306); test: 20S immunoproteasome PGPH activity inhibition, fluorogenic substrate Z-Leu-Leu-Glu-AMC; type: biochemical; conditions: purified human 20S proteasome, room temperature, one hour
Protocol: as §1, §2

[3] = target: 20S Immunoproteasome trypsin-like (T-L) activity (Homo sapiens (Human), UniProt P40306+P49720); test: 20S immunoproteasome T-L activity inhibition, fluorogenic substrate Boc-Leu-Arg-Arg-AMC; type: biochemical; conditions: purified human 20S proteasome, room temperature, one hour
Protocol: as §1, §2

[4] = target: Constitutive 20S proteasome chymotrypsin-like (CT-L) activity (Homo sapiens (Human), UniProt P20618+P28074); test: Constitutive 20S proteasome CT-L activity inhibition, fluorogenic substrate succinyl-Leu-Leu-Val-Tyr-AMC; type: biochemical; conditions: for pIC50: form of 20S proteasome not stated, 'below about'; for IC50: purified human 20S proteasome, room temperature, one hour, read-out: Proteasome inhibition IC50 (nM) Constitutive 20S proteasome CT-L
Protocol: as §1, §2

[5] = target: Constitutive 20S proteasome peptidylglutamyl peptide hydrolyzing (PGPH) activity (Homo sapiens (Human), UniProt P28072+Q99436); test: Constitutive 20S proteasome PGPH activity inhibition, fluorogenic substrate Z-Leu-Leu-Glu-AMC; type: biochemical; conditions: purified human 20S proteasome, room temperature, one hour
Protocol: as §1, §2

[6] = target: Constitutive 20S proteasome trypsin-like (T-L) activity (Homo sapiens (Human), UniProt P49720+Q99436); test: Constitutive 20S proteasome T-L activity inhibition, fluorogenic substrate Boc-Leu-Arg-Arg-AMC; type: biochemical; conditions: for IC50: purified human 20S proteasome, room temperature, one hour, read-out: Proteasome inhibition IC50 (nM) Constitutive 20S proteasome T-L
Protocol: as §1, §2

[7] = Aqueous solubility of the compounds; type: physicochemical; conditions: 50 mM citrate buffer, pH 4, aqueous buffer, thermodynamic from solid, 50 mM citrate pH4.0, 25° C.
Protocol: To determine the solubility of the compounds, 1-5 mg of a compound was weighed into a vial. 1 mL of aqueous buffer (50 mM citrate at pH4.0) was added. The vial was shaken at 25° C. for 24 hours and then centrifuged for 10 min at 10000 rpm. The supernatant was filtered through a 0.45 μm membrane filter and analyzed for the concentration of the compound. In certain embodiments, the aqueous solubility of the compounds is described herein in Table 1.

[8] = test system: CT-L activity of the 20S proteasome in blood samples; test: Inhibition of proteasome CT-L activity in blood samples from dosed Balb/c mice; type: in vivo; conditions: one hour after dosing, vs vehicle
Protocol: (§3) The proteasome activity in the blood samples collected from mice administrated of the vehicle was considered as 100% (control group). The remaining activity was calculated by comparing the proteasome activity in the blood samples collected from mice administrated of a compound described herein via intravenous injection (IV) at 10 mg/kg or via oral gavage (PO) at 30 mg/kg to the control group.
(§4) Balb/c mice were administered of either a vehicle (20% (w/v) hydroxypropyl-β-cyclodextrin in 10 mM sodium citrate at pH3.5), or a compound described herein at a tolerated dose via intravenous injection at 10 mg/kg or oral gavage at 30 mg/kg. One hour after dosing, whole blood samples were collected into tubes containing sodium heparin by cardiac puncture and centrifuged at 150×g for 5 minutes at 4° C. The resulting pellet was washed using ice-cold phosphate buffered saline (PBS) three times. […] The concentration of the blood lysate was measured by BCA method. […] The free AMC fluorescence was quantified using a 360/460 nm filter set in a fluorometer to measure the CT-L, PGPH or T-L activities of the 20S proteasome. Percent inhibition of the proteasome activity was calculated by comparing the samples collected from the mice administrated of a compound described herein to the samples collected from the mice administrated of the vehicle. […]

[9] = test system: T-L activity of the 20S proteasome in blood samples; test: Inhibition of proteasome T-L activity in blood samples from dosed Balb/c mice; type: in vivo; conditions: intravenous 10 mg/kg or oral gavage 30 mg/kg (route not given), one hour after dosing, vs vehicle
Protocol: as §3, §4

IC50 [1] [nM]	IC50 [2] [nM]	IC50 [3] [nM]	pIC50 [4]	IC50 [4] [nM]	IC50 [5] [nM]	pIC50 ([6]; form of 20S proteasome not stated, 'below about', read-out: concentration showing inhibition of T-L activity of the 20S proteasome)	IC50 [6] [nM]	solubility at 24 h [7] [µg/mL]	SMILES	inhibition of CT-L activity in blood samples ([8]; intravenous 10 mg/kg or oral gavage 30 mg/kg (route not given))	inhibition of T-L activity in blood samples [9]	inhibition of CT-L activity in blood samples ([8]; oral gavage at 30 mg/kg)
4.26	> 20000	542	> 8.30	3.73	> 20000	> 6.30	490	1430 (≈ 2090 µM)	COC[C@H](NC(=O)[C@H](CCc1ccccc1)NC(=O)Cc1ccc(CN2CCOCC2)cc1)C(=O)N[C@@H](Cc1ccccc1)C(=O)[C@@]1(C)CO1 [CX13-608]	inhibited both CT-L and T-L activity	inhibited both CT-L and T-L activity	–
11.1	> 20000	> 20000	> 7.30	14.2	> 20000	–	> 20000	520 (≈ 786 µM)	COC[C@H](NC(=O)[C@H](CCc1ccccc1)NC(=O)c1cc(CN2CCOCC2)on1)C(=O)N[C@@H](Cc1ccccc1)C(=O)[C@@]1(C)CO1 [CX13-603]	–	–	inhibited the CT-L activity in blood samples
